13 compounds from patent US11185073B2, “Microbiocidal quinoline (thio)carboxamide derivatives” (SYNGENTA PARTICIPATIONS AG, priority 2017, dated 2021) can be followed below.

Data set [1] deals with Botryotinia fuckeliana (Botrytis cinerea). Kind of data set: Botryotinia fuckeliana (Botrytis cinerea) / liquid culture (gray mould). As to conditions: 72 h, growth inhibition photometrically 3-4 days after application, compared to untreated control. Type of data set: cell-based.
Data set [2] has as its system Glomerella lagenarium (Colletotrichum lagenarium). Description: Glomerella lagenarium (Colletotrichum lagenarium) / liquid culture (anthracnose). Type of data set: cell-based. As to conditions: Colletotrichum orbiculare, growth inhibition photometrically 3-4 days after application, compared to untreated control.
For data set [3], the system named is Fusarium culmorum. Description: microbe, parasite or virus in culture. As to conditions: 72 h, read-out: control of Fusarium culmorum. The data set is classed as cell-based.
The subject of data set [4] is Monographella nivalis (Microdochium nivale). Description: Monographella nivalis (Microdochium nivale) / liquid culture (foot rot cereals). The data set is classed as cell-based. As to conditions: 96 h, growth inhibition photometrically 4-5 days after application, compared to untreated control.
Data set [5] has as its system Magnaporthe grisea (Pyricularia oryzae). Kind of data set: microbe, parasite or virus in culture. As to conditions: 72 h, read-out: control of Magnaporthe grisea. Type of data set: cell-based.
The test system of data set [6] is Fusarium culmorum. Description: whole plant or invertebrate. Type of data set: in vivo. To be noted: in Triticum aestivum, read-out: control of Fusarium culmorum.
Data set [7] concerns Gibberella zeae (Fusarium graminearum). Description: whole plant or invertebrate. As to conditions: in Triticum aestivum, read-out: control of Gibberella zeae. The data set is classed as in vivo.

As usually defined, the melting point is the temperature, or range, at which the solid turns liquid. Compound `CC(COc1ccc(Cl)cc1)(CC(F)(F)F)NC(=O)c1cnc2c(F)cccc2c1` (stereo not shown) [E.005, N-[1-[(4-chloro-phenoxy)methyl]-3,3,3-trifluoro-1-methyl-propyl]-8-fluoro-quinoline-3-carboxamide] yielded a melting point of 94 to 96 °C. Besides, the inhibition of growth at 20 ppm in data set [1] was ≥ 80%. Also, the inhibition of growth at 20 ppm in data set [2] was ≥ 80%. Further, the inhibition of growth at 20 ppm in data set [3] was ≥ 80%. Besides, the inhibition of growth at 20 ppm in data set [4] is ≥ 80%. Moreover, the inhibition of growth at 20 ppm in data set [5] was ≥ 80%. For the same compound, in data set [6], the pest or weed control at 200 ppm was ≥ 80%.
The compound `CC(COC1CCC(F)(F)CC1)(CC(F)(F)F)NC(=O)c1cnc2c(F)cccc2c1` (stereo not shown) [E.003, N-[1-[(4,4-difluoro-cyclohexoxy)-methyl]-3,3,3-trifluoro-1-methyl-propyl]-8-fluoro-quinoline-3-carboxamide] returned a melting point of 42 to 44 °C. Moreover, the inhibition of growth at 20 ppm in data set [1] is ≥ 80%. In addition, the inhibition of growth at 20 ppm in data set [2] was ≥ 80%. The inhibition of growth at 20 ppm in data set [3] was ≥ 80%. In data set [4], the inhibition of growth at 20 ppm was ≥ 80%. Further, in data set [5], the inhibition of growth at 20 ppm was ≥ 80%. For the same compound, the pest or weed control at 200 ppm in data set [7] is ≥ 80%. Besides, the pest or weed control at 200 ppm in data set [6] was ≥ 80%.
Take `CC(C)CC(C)(COCc1ccccc1)NC(=O)c1cnc2c(F)cccc2c1` (stereo not shown) [E.030, N-[1-(benzyloxy-methyl)-1,3-dimethyl-butyl]-8-fluoro-quinoline-3-carboxamide]: the melting point was 120 to 122 °C. Moreover, the inhibition of growth at 20 ppm in data set [1] was ≥ 80%. For the same compound, in data set [2], the inhibition of growth at 20 ppm is ≥ 80%. The inhibition of growth at 20 ppm in data set [3] was ≥ 80%. Besides, in data set [4], the inhibition of growth at 20 ppm is ≥ 80%. For the same compound, the inhibition of growth at 20 ppm in data set [5] is ≥ 80%.
As for `CC(COC1CCC1)(CC(F)(F)F)NC(=O)c1cnc2c(Cl)cccc2c1` (stereo not shown) [E.012, 8-chloro-N-[1-(cyclobutoxymethyl)-3,3,3-trifluoro-1-methyl-propyl]-quinoline-3-carboxamide], the inhibition of growth at 20 ppm in data set [1], in data set [2], in data set [3], in data set [4] and in data set [5] was ≥ 80% each time. Further, the pest or weed control at 200 ppm in data set [7] and in data set [6] was ≥ 80% throughout.
Turning to `CC1(C)CC(OCC(C)(CC(F)(F)F)NC(=O)c2cnc3c(F)cccc3c2)C1` (stereo not shown) [E.004, N-[1-[(3,3-dimethyl-cyclobutoxy)-methyl]-3,3,3-trifluoro-1-methyl-propyl]-8-fluoro-quinoline-3-carboxamide], the melting point fell in the range of 80 to 84 °C. Further, the inhibition of growth at 20 ppm in data set [1] is ≥ 80%. Also, the inhibition of growth at 20 ppm in data set [2] is ≥ 80%. In data set [3], the inhibition of growth at 20 ppm was ≥ 80%. In data set [4], the inhibition of growth at 20 ppm was ≥ 80%. For the same compound, the inhibition of growth at 20 ppm in data set [5] is ≥ 80%. Further, the pest or weed control at 200 ppm in data set [6] is ≥ 80%.
With `CC(C)(C)COCC(C)(CC(F)(F)F)NC(=O)c1cnc2c(F)cccc2c1` (stereo not shown) [E.001, N-[1-(2,2-dimethyl-propoxymethyl)-3,3,3-trifluoro-1-methyl-propyl]-8-fluoro-quinoline-3-carboxamide], the melting point fell in the range of 74 to 78 °C. The inhibition of growth at 20 ppm in data set [1] is ≥ 80%. Besides, the inhibition of growth at 20 ppm in data set [2] was ≥ 80%. The inhibition of growth at 20 ppm in data set [3] is ≥ 80%. The inhibition of growth at 20 ppm in data set [4] is ≥ 80%. For the same compound, in data set [5], the inhibition of growth at 20 ppm was ≥ 80%. Moreover, the pest or weed control at 200 ppm in data set [7] is ≥ 80%. Further, the pest or weed control at 200 ppm in data set [6] is ≥ 80%.
`CC(COC1CCCCC1)(CC(F)(F)F)NC(=O)c1cnc2c(F)cccc2c1` (stereo not shown) [E.027, N-[1-(cyclohexoxy-methyl)-3,3,3-trifluoro-1-methyl-propyl]-8-fluoro-quinoline-3-carboxamide]: the inhibition of growth at 20 ppm in data set [1], in data set [2], in data set [3], in data set [4] and in data set [5] was ≥ 80% throughout. The pest or weed control at 200 ppm in data set [7] and in data set [6] was ≥ 80% throughout.
Turning to `COCC(C)(CC(C)C)NC(=O)c1cnc2c(F)cccc2c1` (stereo not shown) [E.032, 8-fluoro-N-[1-(methoxymethyl)-1,3-dimethyl-butyl]quinoline-3-carboxamide], the melting point fell in the range of 136 to 138 °C. The inhibition of growth at 20 ppm in data set [1] was ≥ 80%. Besides, the inhibition of growth at 20 ppm in data set [3] is ≥ 80%.
As for `C=C(C)COCC(C)(CC(C)C)NC(=O)c1cnc2c(F)cccc2c1` (stereo not shown) [E.020, N-[1,3-dimethyl-1-(2-methylallyloxy-methyl)butyl]-8-fluoro-quinoline-3-carboxamide], the inhibition of growth at 20 ppm in data set [1], in data set [2], in data set [3], in data set [4] and in data set [5] was ≥ 80% throughout. Further, the pest or weed control at 200 ppm in data set [7] and in data set [6] was ≥ 80% in each case.
`CC(COc1ccccc1)(CC(F)(F)F)NC(=O)c1cnc2c(F)cccc2c1` (stereo not shown) [E.019, 8-fluoro-N-[3,3,3-trifluoro-1-methyl-1-(phenoxy-methyl)propyl]-quinoline-3-carboxamide]: the inhibition of growth at 20 ppm in data set [1], in data set [2], in data set [3], in data set [4] and in data set [5] was ≥ 80% in each case. In addition, the pest or weed control at 200 ppm in data set [7] and in data set [6] was ≥ 80% in each case.
Regarding `CC(COC1CCCCCC1)(CC(F)(F)F)NC(=O)c1cnc2c(F)cccc2c1` (stereo not shown) [E.026, N-[1-(cyclohept-oxymethyl)-3,3,3-trifluoro-1-methyl-propyl)-8-fluoro-quinoline-3-carboxamide], the melting point lay within 80 to 85 °C. For the same compound, in data set [1], the inhibition of growth at 20 ppm was ≥ 80%. In addition, the inhibition of growth at 20 ppm in data set [2] is ≥ 80%. In addition, the inhibition of growth at 20 ppm in data set [3] is ≥ 80%. Moreover, the inhibition of growth at 20 ppm in data set [4] was ≥ 80%. The inhibition of growth at 20 ppm in data set [5] was ≥ 80%. Besides, the pest or weed control at 200 ppm in data set [6] is ≥ 80%.
In turn, `C[C@](COC1CCCCC1)(CC(F)(F)F)NC(=O)c1cnc2c(F)cccc2c1` [E.016, N-[(1R)-1-(cyclo-hexoxymethyl)-3,3,3-trifluoro-1-methyl-propyl]-8-fluoro-quinoline-3-carboxamide] came in with a melting point of 80 to 85 °C. In addition, in data set [1], the inhibition of growth at 20 ppm is ≥ 80%. Also, in data set [2], the inhibition of growth at 20 ppm is ≥ 80%. In data set [3], the inhibition of growth at 20 ppm was ≥ 80%. Also, the inhibition of growth at 20 ppm in data set [4] was ≥ 80%. In addition, in data set [5], the inhibition of growth at 20 ppm is ≥ 80%. For the same compound, the pest or weed control at 200 ppm in data set [6] was ≥ 80%.
Regarding `CC1(C)CC(OCC(C)(CC(F)(F)F)NC(=O)c2cnc3c(Cl)cccc3c2)C1` (stereo not shown) [E.002, 8-chloro-N-[1-[(3,3-dimethyl-cyclobutoxy)-methyl]-3,3,3-trifluoro-1-methylpropyl]-quinoline-3-carboxamide], the melting point fell in the range of 127 to 130 °C. For the same compound, in data set [1], the inhibition of growth at 20 ppm is ≥ 80%. Also, the inhibition of growth at 20 ppm in data set [2] is ≥ 80%. Besides, in data set [3], the inhibition of growth at 20 ppm is ≥ 80%. Further, the inhibition of growth at 20 ppm in data set [4] is ≥ 80%. In addition, in data set [5], the inhibition of growth at 20 ppm was ≥ 80%. The pest or weed control at 200 ppm in data set [6] is ≥ 80%.
